According to US12209112B2, “Methods of preventing or treating diseases, conditions, or disorders associated with chemotherapy” (The Chinese University of Hong Kong, priority 2022, dated 2025):
Where two headings read alike, the source gives them in different places.

Legend:
[1] = test system: C57BL/6J male mice; assay type: in vivo, mouse
Description: (§1) Recombinant human GDF15/MIC-1 protein (CHO-derived) was purchased from PeproTech Inc. (Cranbury, USA) and described in Example 1. […] For in vitro studies, solid lyophilized powder of these two drugs were solubilized at the recommended concentrations in sterile water, and separate aliquots were made and frozen until thawing prior to addition to cell cultures. For in vivo studies, all agents were dissolved in […] normal saline according to the required concentrations (doxorubicin, 5 mg/kg; GDF15, 0.5 mg/kg; dexrazoxane, […]), and the final volume of each intraperitoneal injection was 100 μl. The recommended dose ratio of dexrazoxane to doxorubicin was 10 to 1. In the following examples, 5 mg/kg of doxorubicin was used which correspond to 50 mg/kg of dexrazoxane. The FDA recommends that dexrazoxane be injected within 0.5 hour prior to doxorubicin infusion in individuals. This was followed in the same manner when applying to the test animals.
To induce cardiotoxicity in the mouse, four weekly intraperitoneal injections of doxorubicin at 5 mg/kg were administered. After one dose of doxorubicin at 5-6 mg/kg in a mouse, the level of exposure has been estimated to be similar to that of a human individual being given a standard dose of doxorubicin at approximately 60 mg/m^2. Previous studies have shown that mice injected with doxorubicin once a week at 5 mg/kg for four weeks developed cardiotoxicity, as evidenced by decreased ventricular ejection fraction, cardiomyocyte apoptosis, histopathological changes consistent with doxorubicin-induced myocardial damage, and increased mortality rate, compared with the control group.
The hearts of mice were collected after sacrifice and fixed in 4% paraformaldehyde overnight, followed by paraffin embedding. Afterwards the hearts were cut into 4 μm thick slices. Sections were deparaffinized and rehydrated using sequential immersion in 100% alcohol, 95% alcohol and 70% alcohol for 15 minutes each. […]

[2] = test system: hESC-CMs; test: Nuclear condensation by Hoechst 33342 stain (cardiomyocyte apoptosis); assay type: cell-based, human
Description: (§2) To evaluate mitochondrial morphology as a surrogate of cell and mitochondrial viability, hESC-CMs were incubated in B27+/RPMI−1640 media containing 50 nmol/L MitoTracker Deep Red (MTDR) (Thermo Fisher Scientific, USA), and 1 μg/ml Hoechst 33342 (Thermo Fisher Scientific, USA) for 20 minutes. Microscopic images were acquired using DMi8s Research Inverted Thunder Imager Live Cell System (Leica, Germany). For MTDR and Hoechst 33342 imaging, excitation wavelengths of […] and 480 nm, respectively, were used. Mitochondrial morphology was classified into three categories: i) elongated, ii) punctate, and iii) perinuclear. Nuclear morphology was classified as either condensed or normal.

[3] = test system: hESC-CMs; test: α-actinin immunostaining for sarcomeric integrity; assay type: cell-based, human
Description: hESC-CMs were permeabilized using 0.1% Triton X-100 (Thermo Fisher Scientific, USA). After permeabilizing for 15 minutes, cells were washed three times in PBS, and further permeabilization was blocked by incubating cells in PBS with 10% FBS (Hyclone, USA) for 1 hour at room temperature. Cells were incubated with the primary anti-actinin antibody (1:400) (Abcam, UK) and diluted in PBS with 10% FBS overnight. Cells were then washed three times with PBS and incubated with a goat anti-mouse IgG1 secondary antibody (1:1000 diluted in PBS with 10% FBS) (Thermo Fisher Scientific, USA) for 1 hour at room temperature. Finally, cells were washed twice with PBS and mounted using ibidi mounting medium with DAPI (Ibidi, Germany). Microscopic images were acquired using the DMi8s Research Inverted Thunder Imager Live Cell System (Leica, Germany) at 20×, 40×, and 100× magnification.

[4] = test system: hESC-CMs; test: Mitochondrial morphology analysis (MitoTracker Deep Red); assay type: cell-based, human
Description: as §2

[5] = test system: C57BL/6J male mice; test: TUNEL staining of mouse myocardium (cardiomyocyte apoptosis); assay type: in vivo; details: pretreatment before doxorubicin
Description: as §1
To induce cardiotoxicity in the mouse, four weekly intraperitoneal injections of doxorubicin at 5 mg/kg were administered. After one dose of doxorubicin at 5-6 mg/kg in a mouse, the level of exposure has been estimated to be similar to that of a human individual being given a standard dose of doxorubicin at approximately 60 mg/m^2. […]

[6] = hESC-CMs, pretreatment in the presence of Dox
[7] = 300 ng/ml GDF15 pretreatment, hESC-CMs exposed to doxorubicin

Compound	myocardial histopathology (hematoxylin and eosin) ([1]; mouse, in vivo)	hESC-CMs displaying nuclear condensation ([2]; doxorubicin-treated, no pretreatment) [%]	sarcomere structure (α-actinin immunostaining) ([3]; hESC-CMs exposed to Dox alone)	punctation or perinuclear changes of mitochondria ([4]; doxorubicin-treated cells, no pretreatment, untreated control 5.4±4.2%) [%]	elongated mitochondria (proportion of hESC-CMs) ([4]; doxorubicin-treated cells, no pretreatment, untreated control 94.6±5.8%) [%]	myocardial histopathology (hematoxylin and eosin) ([1]; mice, pretreatment before doxorubicin)	extent of nuclear condensation compared with dexrazoxane [2, 6]	hESC-CMs displaying nuclear condensation ([2]; pretreated with 300 ng/ml GDF15, then doxorubicin) [%]	cardiomyocyte death by apoptosis (TUNEL staining) [5]	sarcomere structure (α-actinin immunostaining) ([3]; hESC-CMs, agent only, no doxorubicin)	sarcomeric damage (α-actinin immunostaining) ([3]; hESC-CMs, pretreatment preceding doxorubicin)	elongated mitochondria [4, 7] [%]	perinuclear mitochondria [4, 7] [%]	mitochondrial integrity compared with dexrazoxane [4, 6]
COc1cccc2c1C(=O)c1c(O)c3c(c(O)c1C2=O)C[C@@](O)(C(=O)CO)C[C@@H]3OC1C[C@H](N)[C@H](O)[C@H](C)O1.Cl (stereo partly drawn) [Dox, (8S,10S)-10-[(3-Amino-2,3,6-trideoxy-L-lyxohexopyranosyl)oxy]-7,8,9,10-tetrahydro-6,8,11-trihydroxy-8-(hydroxyacetyl)-1-methoxynaphthacene-5,12-dione hydrochloride, reference compound]	myocardial structural disarray, and microfibrillar disruption and disorganization	> 40	considerable disruption of sarcomere structure and nuclear condensation	47.3±12.6	24.5±17.1									
GDF15: commercially available recombinant human GDF-15 protein (PeproTech 120-28C), CHO cell-derived, SEQ ID NO: 1						similarly improved	performed similarly to dexrazoxane	12.8±1.7	reduced extent of cardiomyocyte death by apoptosis	well-organized, striated sarcomeres	sarcomeric damage was evidently attenuated	62.5±11.0	13.2±14.7	performed similarly to dexrazoxane
